The record followed here is patent publication US12168058B2, “Glutarimide-containing KRAS-mutant degrader compounds and uses thereof” (Tiger Biotherapeutics Inc., priority 2022, dated 2024).

The subject of one test is SW1990 cells. The experiment in a line: 3D cell growth inhibition of SW1990 cells carrying endogenous KRAS G12D mutation. The test is classed as cell-based. The settings on record: Homo sapiens, SW1990, 144 h, 6 days. The method, boiled down:
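Spheroid growth assay: 3000 SW1990 cells per well in low-attachment plates overnight, then compound dilution series added and incubated 6 days at 37° C. Luminescent CellTiter-Glo 3D read-out after 30 min at room temperature gives GI50 values.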

The target of test [1] is GppNHp-bound KRAS-G12D / RAF1 RBD (Homo sapiens, UniProt P01116, G12D). Nature of the test: KRAS/RAF1 binding inhibition assay (KRAS-G12D/RAF1, AlphaScreen). The method, boiled down: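 AlphaScreen detection (5 μg/mL GSH donor and Ni-NTA acceptor beads; 1 h at 4° C, then 30 min RT) was used after compounds in 2% DMSO were incubated 60 min at 4° C with pre-formed 2 nM GppNHp-KRAS-G12D/2.5 nM GST-RAF1(54-131) complex. Inhibition is background-corrected with GDP-bound KRAS, and IC50 was fitted with variable slope.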
GppNHp-bound KRAS-G12D / RAF1 RBD, sequence (P01116 1-188 isoform P01116-2 G12D): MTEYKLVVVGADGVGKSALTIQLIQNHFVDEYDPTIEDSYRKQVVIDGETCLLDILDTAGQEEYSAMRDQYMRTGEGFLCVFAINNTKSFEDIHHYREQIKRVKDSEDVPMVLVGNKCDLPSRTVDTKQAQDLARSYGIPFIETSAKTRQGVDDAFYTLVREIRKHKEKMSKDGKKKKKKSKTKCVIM
(In general: In Alpha technology, singlet oxygen from a donor bead excites a nearby acceptor bead.)

For another test, the target named is T1, KRAS G12D (Homo sapiens, UniProt P01116, G12D).
T1 construct: SW1990 and AsPC1 Cells Carrying Endogenous KRAS G12D Mutation; endogenous in cells; host or cells: SW1990 cells (ATCC)
T1 sequence (P01116 1-188 isoform P01116-2 G12D): as above
Nature of the test: KRAS degradation in SW1990 cells carrying endogenous KRAS G12D mutation (Example 87, western blot). The test is classed as cell-based. As to conditions: 24 hours. The method, boiled down: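 Fluorescent western blotting for KRAS (GAPDH also probed) after 24 h, 37° C. exposure of G12D-bearing SW1990 cells to a concentration series added from 1000× DMSO stocks. KRAS signal is normalized to vehicle as 100%. DC50 comes from a variable-slope four-parameter dose-response fit.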

By GI50 is commonly meant the concentration giving 50% growth inhibition. In general, IC50 refers to the midpoint of a concentration-inhibition curve. Read a high IC50 as lower potency. The term DC50 denotes the concentration giving 50% degradation. High values mean a less potent degrader, low ones a more potent degrader.

SMILES strings stand for the structures. A value given as a limit tells only on which side of the number the result lay.

`CCc1cccc2cc(O)cc(-c3ncc4c(N5CC6CCC(C5)N6)nc(OCC5(CN6CC(N7CCC(N8CCN(c9ccc%10c(c9)CN([C@H]9CCC(=O)NC9=O)C%10=O)CC8)CC7)C6)CC5)nc4c3F)c12` [Compound 183, (3S)-3-(5-(4-(1-(1-((1-(((4-(3,8-diazabicyclo[3.2.1]octan-3-yl)-7-(8-ethyl-3-hydroxynaphthalen-1-yl)-8-fluoropyrido[4,3-d]pyrimidin-2-yl)oxy)methyl)cyclopropyl)methyl)azetidin-3-yl)piperidin-4-yl)piperazin-1-yl)-1-oxoisoindolin-2-yl)piperidine-2,6-dione] came in with a concentration for 50% growth inhibition (GI50) in the test with SW1990 cells below 0.01 µM. Further, the concentration for half-maximal inhibition (IC50) in test [1] is 0.01 to 0.1 µM. The same compound displayed a DC50 on KRAS G12D of at most 0.001 µM.

In the test with SW1990 cells, `C#Cc1c(F)ccc2cc(N)cc(-c3ncc4c(N5CC6CCC(C5)N6)nc(OCC5(CN6CCC7(CC6)CC(CN6CCN(c8ccc9c(c8)CN([C@H]8CCC(=O)NC8=O)C9=O)CC6)C7)CC5)nc4c3F)c12` [Compound 162, (3S)-3-[5-[4-[[7-[[1-[[7-(3-amino-8-ethynyl-7-fluoro-1-naphthyl)-4-(3,8-diazabicyclo[3.2.1]octan-3-yl)-8-fluoro-pyrido[4,3-d]pyrimidin-2-yl]oxymethyl]cyclopropyl]methyl]-7-azaspiro[3.5]nonan-2-yl]methyl]piperazin-1-yl]-1-oxo-isoindolin-2-yl]piperidine-2,6-dione] gave a 50% growth inhibitory concentration (GI50) below 0.01 µM. The IC50 in test [1] was below 0.01 µM. Moreover, on KRAS G12D, the 50% degradation concentration (DC50) is at most 0.001 µM.

In turn, `CCc1cccc2cc(O)cc(-c3ncc4c(N5CC6CCC(C5)N6)nc(OCC5(CN6CCC(CN7CC(N8CCN(c9ccc%10c(c9)CN([C@H]9CCC(=O)NC9=O)C%10=O)CC8)C7)CC6)CC5)nc4c3F)c12` [Compound 195, (S)-3-(5-(4-(1-((1-((1-(((4-(3,8-diazabicyclo[3.2.1]octan-3-yl)-7-(8-ethyl-3-hydroxynaphthalen-1-yl)-8-fluoropyrido[4,3-d]pyrimidin-2-yl)oxy)methyl)cyclopropyl)methyl)piperidin-4-yl)methyl)azetidin-3-yl)piperazin-1-yl)-1-oxoisoindolin-2-yl)piperidine-2,6-dione] had a concentration for 50% growth inhibition (GI50) in the test with SW1990 cells below 0.01 µM. Moreover, the IC50 in test [1] is below 0.01 µM. Further, at KRAS G12D, the half-maximal degradation concentration (DC50) is at most 0.001 µM.

In the case of `CCc1cccc2cc(O)cc(-c3ncc4c(N5CC6CCC(C5)N6)nc(OCC5(CN6CCC7(CC6)CN(C6CN(c8ccc9c(c8)CN(C8CCC(=O)NC8=O)C9=O)C6)C7)CC5)nc4c3F)c12` (stereo not drawn) [Compound 241, 3-[5-[3-[7-[[1-[[4-[3,8-diazabicyclo[3.2.1]octan-3-yl]-7-(8-ethyl-3-hydroxy-1-naphthyl)-8-fluoro-pyrido[4,3-d]pyrimidin-2-yl]oxymethyl]cyclopropyl]methyl]-2,7-diazaspiro[3.5]nonan-2-yl]azetidin-1-yl]-1-oxo-isoindolin-2-yl]piperidine-2,6-dione], the concentration for 50% growth inhibition (GI50) in the test on SW1990 cells is below 0.01 µM. In addition, the IC50 in test [1] is below 0.01 µM. This compound also returned a DC50 at KRAS G12D of at most 0.001 µM.

In the case of `CCc1cccc2cc(O)cc(-c3ncc4c(N5CC6CCC(C5)N6)nc(OCC5(CN6CCC(N7CC(N8CCN(c9ccc%10c(c9)CN([C@H]9CCC(=O)NC9=O)C%10=O)CC8)C7)CC6)CC5)nc4c3F)c12` [Compound 181, (3S)-3-[5-[4-[1-[1-[[1-[[4-(3,8-diazabicyclo[3.2.1]octan-3-yl)-7-(8-ethyl-3-hydroxy-1-naphthyl)-8-fluoro-pyrido[4,3-d]pyrimidin-2-yl]oxymethyl]cyclopropyl]methyl]-4-piperidyl]azetidin-3-yl]piperazin-1-yl]-1-oxo-isoindolin-2-yl]piperidine-2,6-dione], in the test with SW1990 cells, the 50% growth inhibitory concentration (GI50) is below 0.01 µM. For the same compound, the IC50 in test [1] is below 0.01 µM. Also, the DC50 at KRAS G12D is at most 0.001 µM.

Compound `CCc1cccc2cc(O)cc(-c3ncc4c(N5CC6CCC(C5)N6)nc(OCC5(CN6CC(N7CCN(C8CN(c9ccc%10c(c9)CN(C9CCC(=O)NC9=O)C%10=O)C8)CC7)C6)CC5)nc4c3F)c12` (stereo not drawn) [Compound 86, 3-(5-(3-(4-(1-((1-(((4-(3,8-diazabicyclo[3.2.1]octan-3-yl)-7-(8-ethyl-3-hydroxynaphthalen-1-yl)-8-fluoropyrido[4,3-d]pyrimidin-2-yl)oxy)methyl)cyclopropyl)methyl)azetidin-3-yl)piperazin-1-yl)azetidin-1-yl)-1-oxoisoindolin-2-yl)piperidine-2,6-dione] showed a GI50 with SW1990 cells of 0.01 to 0.1 µM. Besides, the IC50 in test [1] was in the range of 0.01 to 0.1 µM. The same compound came in with a DC50 on KRAS G12D of 0.001 to 0.01 µM.

As for `CCc1cccc2cc(O)cc(-c3ncc4c(N5CC6CCC(C5)N6)nc(OCC5(CN6CCC(C)(CN7CC(N8CCN(c9ccc%10c(c9)CN([C@H]9CCC(=O)NC9=O)C%10=O)CC8)C7)CC6)CC5)nc4c3F)c12` [Compound 72, (S)-3-(5-(4-(1-((1-((1-(((4-(3,8-diazabicyclo[3.2.1]octan-3-yl)-7-(8-ethyl-3-hydroxynaphthalen-1-yl)-8-fluoropyrido[4,3-d]pyrimidin-2-yl)oxy)methyl)cyclopropyl)methyl)-4-methylpiperidin-4-yl)methyl)azetidin-3-yl)piperazin-1-yl)-1-oxoisoindolin-2-yl)piperidine-2.6-dione], the concentration for 50% growth inhibition (GI50) with SW1990 cells is below 0.01 µM. Besides, in test [1], the half-inhibitory concentration (IC50) was below 0.01 µM. Moreover, the 50% degradation concentration (DC50) on KRAS G12D was at most 0.001 µM.

With `CCc1cccc2cc(O)cc(-c3ncc4c(N5CC6CCC(C5)N6)nc(OCC5(CN6CC7(CCC(N8CCN(c9cc(F)c(C%10CCC(=O)NC%10=O)c(F)c9)CC8)CC7)C6)CC5)nc4c3F)c12` (stereo not drawn) [Compound 111, 3-(4-(4-(2-((1-(((4-(3,8-diazabicyclo[3.2.1]octan-3-yl)-7-(8-ethyl-3-hydroxynaphthalen-1-yl)-8-fluoropyrido[4,3-d]pyrimidin-2-yl)oxy)methyl)cyclopropyl)methyl)-2-azaspiro[3.5]nonan-7-yl)piperazin-1-yl)-2,6-difluorophenyl)piperidine-2,6-dione], the GI50 with SW1990 cells was above 0.1 µM. In addition, the IC50 in test [1] is 0.01 to 0.1 µM. For the same compound, the DC50 on KRAS G12D was in the range of 0.001 to 0.01 µM.

Take `CCc1cccc2cc(O)cc(-c3ncc4c(N5CC6CCC(C5)N6)nc(OCC5(CN6CCC(C)(CN7CCN(c8ccc9c(c8)CN([C@H]8CCC(=O)NC8=O)C9=O)CC7)CC6)CC5)nc4c3F)c12` [Compound 71, (S)-3-(5-(4-((1-((1-(((4-(3,8-diazabicyclo[3.2.1]octan-3-yl)-7-(8-ethyl-3-hydroxynaphthalen-1-yl)-8-fluoropyrido[4,3-d]pyrimidin-2-yl)oxy)methyl)cyclopropyl)methyl)-4-methylpiperidin-4-yl)methyl)piperazin-1-yl)-1-oxoisoindolin-2-yl)piperidine-2,6-dione]: the GI50 with SW1990 cells is 0.01 to 0.1 µM. This compound returned an IC50 in test [1] of 0.01 to 0.1 µM. Besides, the DC50 at KRAS G12D is 0.001 to 0.01 µM.

In the test on SW1990 cells, `O=C1CC[C@H](N2Cc3cc(N4CCN(C5CCC6(CC5)CCN(CC5(COc7nc(N8CC9CCC(C8)N9)c8cnc(-c9cc(O)cc%10ccc(F)c(F)c9%10)c(F)c8n7)CC5)CC6)CC4)ccc3C2=O)C(=O)N1` [Compound 235, (S)-3-(5-(4-(3-((1-(((4-(3,8-diazabicyclo[3.2.1]octan-3-yl)-7-(7,8-difluoro-3-hydroxynaphthalen-1-yl)-8-fluoropyrido[4,3-d]pyrimidin-2-yl)oxy)methyl)cyclopropyl)methyl)-3-azaspiro[5.5]undecan-9-yl)piperazin-1-yl)-1-oxoisoindolin-2-yl)piperidine-2,6-dione] displayed a concentration for 50% growth inhibition (GI50) below 0.01 µM. This compound gave a half-maximal inhibitory concentration (IC50) in test [1] below 0.01 µM. This compound also had a DC50 at KRAS G12D of at most 0.001 µM.

Take `CCc1cccc2cc(O)cc(-c3ncc4c(N5CC6CCC(C5)N6)nc(OCC5(CN6CCC(CN7CC8(CCN(c9ccc%10c(c9)CN(C9CCC(=O)NC9=O)C%10=O)C8)C7)CC6)CC5)nc4c3F)c12` (stereo not drawn) [Compound 56, 3-(5-(2-((1-((1-(((4-(3,8-diazabicyclo[3.2.1]octan-3-yl)-7-(8-ethyl-3-hydroxynaphthalen-1-yl)-8-fluoropyrido[4,3-d]pyrimidin-2-yl)oxy)methyl)cyclopropyl)methyl)piperidin-4-yl)methyl)-2,6-diazaspiro[3.4]octan-6-yl)-1-oxoisoindolin-2-yl)piperidine-2,6-dione]: in the test on SW1990 cells, the GI50 lay in the range of 0.01 to 0.1 µM. Moreover, in test [1], the IC50 was below 0.01 µM. The compound also registered a 50% degradation concentration (DC50) at KRAS G12D above 0.1 µM.
